Legend:
[1] = target: T1, major EF-Tu species of S. ramocissimus strain R1V (Streptomyces ramocissimus, UniProt P29542, A379V); test: direct elfamycin binding assay on S-100 extract; settings: S-100 extract of strain R1V; 25 µM Aurodox
T1 construct: an S-100 extract was prepared from a culture of S. ramocissimus strain R1V; endogenous in cells; host or cells: S. ramocissimus strain R1V (chromosomal tuf1 replaced by the A378V allele)
Procedure: (§1) For direct visualization of the elfamycin binding capacity, the mutant proteins were expressed in E. coli JM101 essentially as described in Example 3. Subsequently, a GDP stabilized S-30, S-100, or purified SrEF-Tu sample was prepared, and incubated with 25 µM aurodox for 15 minutes at 37°C. These samples, and control samples without aurodox were then subjected to non-denaturing 10% polyacrylamide gels and electrophoresed. Detection of the SrEF-Tu species was performed by the Western blotting technique using SrEF-Tu antibodies (Example 1). […] This experiment thus established that elfamycin resistance is most likely the effect of a reduced binding of the elfamycin to the mutant SrEF-Tu proteins.
To establish that S. ramocissimus strain R1V actually expresses the mutated Srtuf1 gene as the main EF-Tu species, an S-100 extract was prepared from a culture of S. ramocissimus strain R1V essentially as described in Example 1. Subsequently this extract was subjected to the direct elfamycin binding assay outlined in Example 6.

[2] = target: T2, SrEF-Tu A378V (Streptomyces ramocissimus, UniProt P29542, A379V); test: elfamycin binding visualized by non-denaturing PAGE; set-up: species or system S. ramocissimus; settings: 25 µM aurodox, 15 minutes at 37°C; Western blotting detection
T2 construct: made in house; host or cells: E. coli JM101
Procedure: (§2) Susceptibility of the isolated EF-Tu to elfamycin is tested in elfamycin binding studies (G. Chinali et al., Eur. J. Biochem. 75 (1977) 55-65,) and in studies on the inhibition of EF-Tu dependent peptide synthesis (C. Glöckner and H. Wolf, cited above). Still another direct elfamycin binding assay has been developed in which the capacity of the EF-Tu protein to bind elfamycins can be visualized by a change in EF-Tu protein migration in the presence of the elfamycin by non-denaturing PAGE (polyacrylamide gel electrophoresis). Upon elfamycin binding to EF-Tu.GDP, a ternary complex is formed which is more negatively charged than the binary EF-Tu.GDP complex (B. Kraal et al, 1989, in The Guanine-Nucleotide Binding Proteins, pp 121-129, Plenum Press, New York). Consequently elfamycin binding, using e.g. aurodox, to Escherichia coli wild-type EF-Tu increases the migration distance into a non-denaturing polyacrylamide gel. Both the methods of peptide synthesis inhibition and visualization of elfamycin binding are the preferred techniques to determine the effect of elfamycin binding on EF-Tu functioning. These susceptibility assays are important if increased elfamycin resistance of EF-Tu has to be established.
as §1

[3] = target: T3, SrEF-Tu A378P (Streptomyces ramocissimus, UniProt P29542, A379P); test: as above; set-up: species or system S. ramocissimus; settings: 25 µM aurodox, 15 minutes at 37°C; Western blotting detection
T3 construct: made in house; host or cells: E. coli JM101
Procedure: as §2, §1

[4] = target: T4, SrEF-Tu A378F (Streptomyces ramocissimus, UniProt P29542, A379F); test: as above; set-up: species or system S. ramocissimus; settings: 25 µM aurodox, 15 minutes at 37°C; Western blotting detection
T4 construct: made in house; host or cells: E. coli JM101
Procedure: as §2, §1

[5] = target: T5, SrEF-Tu A378T (Streptomyces ramocissimus, UniProt P29542, A379T); test: as above; set-up: species or system S. ramocissimus; settings: 25 µM aurodox, 15 minutes at 37°C; Western blotting detection
T5 construct: made in house; host or cells: E. coli JM101
Procedure: as §2, §1

[6] = target: T6, wild-type S. ramocissimus EF-Tu (Streptomyces ramocissimus, UniProt P29542); test: as above; settings: 25 µM aurodox, 15 minutes at 37°C; Western blotting detection
T6 construct: made in house; host or cells: E. coli JM101 (pUSrT1-1)
Procedure: as §2
For direct visualization of the elfamycin binding capacity, the mutant proteins were expressed in E. coli JM101 essentially as described in Example 3. […]

T3 sequence (P29542 whole entry A379P): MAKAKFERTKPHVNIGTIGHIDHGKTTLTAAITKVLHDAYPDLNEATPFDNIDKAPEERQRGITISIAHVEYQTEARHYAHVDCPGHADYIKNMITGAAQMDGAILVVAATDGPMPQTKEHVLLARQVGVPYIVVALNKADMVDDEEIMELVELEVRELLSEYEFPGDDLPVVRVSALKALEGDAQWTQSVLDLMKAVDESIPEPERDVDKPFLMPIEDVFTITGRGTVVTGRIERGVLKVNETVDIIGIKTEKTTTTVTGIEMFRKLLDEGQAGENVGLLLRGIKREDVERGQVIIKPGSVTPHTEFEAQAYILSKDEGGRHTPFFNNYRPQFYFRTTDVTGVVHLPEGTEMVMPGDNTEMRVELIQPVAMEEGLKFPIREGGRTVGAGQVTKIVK
T1 sequence (P29542 whole entry A379V): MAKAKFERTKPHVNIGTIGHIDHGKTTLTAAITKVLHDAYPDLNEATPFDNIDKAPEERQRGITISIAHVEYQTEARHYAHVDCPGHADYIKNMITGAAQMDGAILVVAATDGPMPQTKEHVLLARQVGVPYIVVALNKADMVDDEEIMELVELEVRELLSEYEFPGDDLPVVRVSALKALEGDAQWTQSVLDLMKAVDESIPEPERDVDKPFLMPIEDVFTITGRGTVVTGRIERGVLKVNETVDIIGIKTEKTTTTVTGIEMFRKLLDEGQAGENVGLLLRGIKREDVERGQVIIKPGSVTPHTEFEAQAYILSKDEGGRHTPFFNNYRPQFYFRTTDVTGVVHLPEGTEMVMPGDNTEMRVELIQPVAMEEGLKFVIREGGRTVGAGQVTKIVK
T2 sequence (P29542 whole entry A379V): as above
T4 sequence (P29542 whole entry A379F): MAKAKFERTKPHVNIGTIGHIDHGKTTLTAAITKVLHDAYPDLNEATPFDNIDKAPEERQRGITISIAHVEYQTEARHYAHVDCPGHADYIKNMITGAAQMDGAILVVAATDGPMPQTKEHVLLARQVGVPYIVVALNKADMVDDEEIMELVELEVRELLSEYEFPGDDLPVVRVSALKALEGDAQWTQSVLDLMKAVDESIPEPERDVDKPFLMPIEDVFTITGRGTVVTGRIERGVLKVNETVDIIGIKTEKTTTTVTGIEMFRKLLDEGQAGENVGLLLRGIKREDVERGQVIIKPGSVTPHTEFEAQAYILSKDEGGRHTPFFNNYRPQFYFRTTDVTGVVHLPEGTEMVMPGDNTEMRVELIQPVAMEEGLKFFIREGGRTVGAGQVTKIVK
T5 sequence (P29542 whole entry A379T): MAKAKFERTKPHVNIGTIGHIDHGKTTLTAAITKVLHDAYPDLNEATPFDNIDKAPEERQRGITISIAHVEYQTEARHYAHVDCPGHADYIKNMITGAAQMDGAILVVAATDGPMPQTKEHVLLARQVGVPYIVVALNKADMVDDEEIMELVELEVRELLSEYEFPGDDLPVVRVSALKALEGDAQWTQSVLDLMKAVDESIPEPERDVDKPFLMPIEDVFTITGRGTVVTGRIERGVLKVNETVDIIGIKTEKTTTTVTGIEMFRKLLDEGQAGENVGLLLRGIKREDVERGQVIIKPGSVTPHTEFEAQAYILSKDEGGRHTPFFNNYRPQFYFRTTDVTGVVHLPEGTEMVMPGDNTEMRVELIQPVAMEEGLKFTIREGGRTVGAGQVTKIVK
T6 sequence (P29542 whole entry): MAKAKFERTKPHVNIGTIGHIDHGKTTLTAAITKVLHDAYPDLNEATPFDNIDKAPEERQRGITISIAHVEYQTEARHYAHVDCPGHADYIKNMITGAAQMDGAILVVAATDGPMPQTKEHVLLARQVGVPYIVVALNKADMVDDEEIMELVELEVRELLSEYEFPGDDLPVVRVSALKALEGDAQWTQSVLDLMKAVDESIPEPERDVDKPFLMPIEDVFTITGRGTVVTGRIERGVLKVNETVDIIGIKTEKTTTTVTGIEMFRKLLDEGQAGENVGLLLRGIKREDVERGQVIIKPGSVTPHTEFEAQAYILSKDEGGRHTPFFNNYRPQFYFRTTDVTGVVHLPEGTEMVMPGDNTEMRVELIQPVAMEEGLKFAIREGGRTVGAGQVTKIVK

In the case of `C/C=C\C=C\[C@@H]1O[C@](O)([C@H](CC)C(=O)NC/C=C/C=C(\C)[C@@H](OC)[C@@H](C)[C@@H]2O[C@H](/C=C/C=C/C=C(\C)C(=O)c3c(O)ccn(C)c3=O)[C@H](O)[C@@H]2O)[C@H](O)[C@H](O)C1(C)C` [aurodox, N-Methylmocimycin], the “elfamycin binding (migration in non-denaturing PAGE)” value [1] is reported as “unable to bind”, the “elfamycin binding (migration in non-denaturing PAGE)” value [2] is reported as “unaffected” and the “elfamycin binding (migration in non-denaturing PAGE)” value [3] is reported as “unaffected”. For the same molecule, the “elfamycin binding (migration in non-denaturing PAGE)” value [4] was “unaffected”, the “elfamycin binding (migration in non-denaturing PAGE)” value [5] was “unaffected” and the “elfamycin binding (migration in non-denaturing PAGE)” value [6] was “appears to bind”.

Reference: patent EP0466251A1, “Elfamycin-resistant mutants” (priority 1990, dated 1992)
